Laboratory results as given in US4487777A (priority 1981, dated 1984).

Columns and labels:
[1] = system: Phytophthora infestans conidia; experiment: whole plant or invertebrate; format: in vivo; conditions: in Solanum lycopersicum, 168 h, read-out: % Control TLB (Tomato Late Blight)
Septoria apii = format: in vivo; conditions: celery (Utah) plants; % disease reduction relative to untreated check plants; concentration not given
Plasmapora viticola = experiment: Grape Downy Mildew control (detached grape leaves); format: in vivo; conditions: detached Vitis vinifera cultivar Emperor leaves; % disease reduction relative to untreated check plants; concentration not given
Protocol: Grape Downy Mildew Control
The compounds of the invention were tested for the control of the grape downy mildew organism Plasmapora viticola. Detached leaves, between 70 and 85 mm in diameter, of 7-week-old Vitis vinifera cultivar Emperor grape seedlings were used as hosts. The leaves were sprayed with a solution of the test compound in acetone. The sprayed leaves were dried, inoculated with a spore suspension of the organism, placed in a humid environmental chamber and incubated at 66°-68° F. and about 100% relative humidity. After incubation for 2 days, the plants were then held in a greenhouse for seven to nine days. Afterwards, the amount of disease control was determined. The percent disease control provided by a given test compound was based on the percent disease reduction relative to untreated check plants.

Botrytis cinerea = Botrytis cinerea preventive control on harvested grape berries; format: in vivo; conditions: grape berries (Emperor)
Protocol: EXAMPLE 15-Botrytis Cinerea Control
Compound 1 of the invention was tested as a preventive fungicide against Botrytis cinerea on harvested mature grape berries (variety Emperor) by the following procedure: four grape bunches (trimmed to approximately 30 berries) were sprayed with a solution of the test compound in a solution of water, acetone and a small amount of a non-ionic emulsifier. The sprayed grapes were inoculated approximately one day later with 2- to 3-week-old culture of Botrytis cinerea grown on potato dextrose agar plates. The rate of disease incidence was determined 5-10 days after inoculation, when disease symptoms are fully evident on non-treated check grapes. Infection is determined by actual count of the number of infected berries. The percent disease control provided by a test compound was calculated from the percentage disease reduction based on the non-treated check grapes.

Rhizoctonia solani = experiment: Rhizoctonia mycelial inhibition test; format: cell-based; conditions: 500 ppm in acetone; 25° C., 24 hours; standard Difolatan; "0" assigned where greater than 1.6 micrograms/cm^2 required for 99% control
Protocol: Compounds of the present invention were evaluated for effectiveness against Rhizoctonia solani by means of a mycelial inhibition test. This test is designed to measure the fungitoxic activity of fungicidal chemicals in terms of their degree of inhibition of mycelial growth. Each compound to be tested was dissolved in acetone to 500 ppm concentration. Paper strips were infused with the particular mycelium growth (on this case Rhizoctonia solani) by covering the paper with a potato dextrose broth culture of mycelial suspension. The papers were then placed on potato dextrose agar plates and sprayed by means of a microsprayer with the fungicidal solution. The treated paper strips were incubated at 25° C. and data taken after 24 hours. Fungicidal activity is measured by the zone of inhibited mycelial growth from the center of the paper strip. The effectiveness of the compounds tested for fungicidal activity against Rhizoctonia solani is reported in Table III in terms of the [formula] In cases where greater than 1.6 micrograms/cm^2 were required for 99% control, a value of "0" was assigned to the test compound.

[2] = system: Alternaria solani conidia; experiment: Tomato Early Blight control (tomato seedlings, sprayed then inoculated); format: in vivo; conditions: 288 h, 250-ppm solution, tomato (Bonny Best), relative to untreated check plants, read-out: % Control TEB (Tomato Early Blight)
Protocol: Compounds of the invention were tested for the control of the Tomato Early Blight organism, Alternaria solani conidia. Tomato (variety Bonny Best) seedlings of 6 to 7 weeks old were used. The tomato plants were sprayed with a 250-ppm solution of the test compound in an acetone-and-water solution containing a small amount of a non-ionic emulsifier. The sprayed plants were inoculated one day later with the organism, placed in the environmental chamber and incubated at 66°-68° F. and 100% relative humidity for 24 hours. Following the incubation, the plants were maintained in the greenhouse for about 12 days. Percent disease control was based on the percent disease development on untreated check plants.

Row | SMILES | pest or weed control at 250 µg/mL [1] [%] | % Control CLB (Celery Late Blight) (Septoria apii) [%] | % Control Grape DM (Grape Downy Mildew) (Plasmapora viticola) [%] | Botrytis Prevention (% Control) (Botrytis cinerea; 40 ppm) [%] | Botrytis Prevention (% Control) (Botrytis cinerea; 100 ppm) [%] | Botrytis Prevention (% Control) (Botrytis cinerea; 250 ppm) [%] | % Control Rhizoc (Rhizoctonia) (Rhizoctonia solani) [%] | pest or weed control at 250 µg/mL [2] [%]
1 | COC(=O)CS(=O)(=O)CC1CC(=O)N(c2cc(Cl)cc(Cl)c2)C1=O (centres unmarked) [Compound 1, N-3,5-dichlorophenyl-2-methoxycarbonylmethylsulfonylmethylsuccinimide] | 11 | 57 | 81 | 58 | 52 | 58 | 0 | 89
2 | COC(=O)CCS(=O)(=O)CC1CC(=O)N(c2cc(Cl)cc(Cl)c2)C1=O (centres unmarked) [Compound 2] | 23 | 45 | 71 | – | – | – | 0 | 96
3 | CCOC(=O)CS(=O)(=O)CC1CC(=O)N(c2cc(Cl)cc(Cl)c2)C1=O (centres unmarked) [Compound 3, N-3,5-dichlorophenyl-2-ethoxycarbonylmethylsulfonylmethylsuccinimide] | 93 | – | 23 | – | – | – | 78 | 85
4 | CCOC(=O)CSCC1CC(=O)N(c2cc(Cl)cc(Cl)c2)C1=O (centres unmarked) [Compound 4, N-3,5-dichlorophenyl-2-ethoxycarbonylmethylthiomethylsuccinimide] | 84 | – | 0 | – | – | – | 0 | 0
5 | CC(=O)SCC1CC(=O)N(c2cc(Cl)cc(Cl)c2)C1=O (centres unmarked) [Compound 5, N-3,5-dichlorophenyl-2-thioacetylmethylsuccinimide] | 0 | 0 | 23 | – | – | – | 0 | 57
6 | COC(=O)CSCC1CC(=O)N(c2cc(Cl)cc(Cl)c2)C1=O (centres unmarked) [Compound 6, N-3,5-dichlorophenyl-2-methoxycarbonylmethylthiomethylsuccinimide] | 39 | 50 | 18 | – | – | – | 0 | 80
7 | COC(=O)CCSCC1CC(=O)N(c2cc(Cl)cc(Cl)c2)C1=O (centres unmarked) [Compound 7] | 21 | 0 | 97 | – | – | – | 0 | 89
8 | O=C1CC(C2SCCS2)C(=O)N1c1cc(Cl)cc(Cl)c1 (centres unmarked) [Compound 8, N-3,5-dichlorophenyl-2-formylsuccinimide-2-dithioketal] | 89 | 29 | 18 | – | – | – | 30 | 98
9 | C=CCS(=O)(=O)CC1CC(=O)N(c2cc(Cl)cc(Cl)c2)C1=O (centres unmarked) [Compound 9, N-3,5-dichlorophenyl-2-allylsulfonylmethylsuccinimide] | 25 | 50 | 57 | – | – | – | 80 | 63
10 | C=C(Cl)CS(=O)(=O)CC1CC(=O)N(c2cc(Cl)cc(Cl)c2)C1=O (centres unmarked) [Compound 10] | 29 | 50 | 18 | – | – | – | 91 | 83
11 | CC(C)(C)S(=O)(=O)C=C1CC(=O)N(c2cc(Cl)cc(Cl)c2)C1=O [Compound 11, N-3,5-dichlorophenyl-2-t-butylsulfonylmethenylsuccinimide] | 6 | 0 | 8 | – | – | – | 0 | 0
12 | O=C1CC(=CSc2ccccc2)C(=O)N1c1cc(Cl)cc(Cl)c1 [Compound 12, N-3,5-dichlorophenyl-2-phenylthiomethenylsuccinimide] | 21 | 0 | 0 | – | – | – | 0 | 0
13 | CCSC=C1CC(=O)N(c2cc(Cl)cc(Cl)c2)C1=O [Compound 13, N-3,5-dichlorophenyl-2-ethylthiomethenylsuccinimide] | 0 | 0 | 35 | – | – | – | 0 | 94
14 | CC(C)(C)SC=C1CC(=O)N(c2cc(Cl)cc(Cl)c2)C1=O [Compound 14, N-3,5-dichlorophenyl-2-t-butylthiomethenylsuccinimide] | 67 | 57 | 42 | – | – | – | 0 | 96
